# Read-outs that look alike come from different tables or passages of the source.
# How the values were obtained:
# [1] = cited from earlier work
# [2] = Precursor cosmetic compositions evaluated for crystals content, i.e. solubility of solid agent in the liquid agent (Example 29); type: physicochemical
# Method: The following precursor cosmetic compositions were prepared and evaluated for crystals content, i.e. solubility of solid agent in the liquid agent.
# The composition is heated to a temperature above the melting point of the highest melting compound, then allowed to cool to room temperature. […] In the case of end use cosmetic compositions visualization of the crystals of solid agent was done by comparing a sample with and without tricyclodecane amide and observing the formation of crystals, if any, under the optical microscope fitted with cross-polarizers at a magnification of 10× or higher.
# [3] = 2-HEU (16.6%) in OMC (50%), [S]/[L] 0.3, amide (33.3%), 24 hours
# [4] = 12HSA (16.6%) in OMC (50%), [S]/[L] 0.3, amide or comparator (33%), 24 hours
# [5] = Cholesterol (16.6%) in OMC (50%), [S]/[L] 0.3, amide or comparator (33.3%), 24 hours
# [6] = Climbazole (28.5%) in OMC (42.8%), [S]/[L] 0.7, amide (28.5%), 24 hours
# [7] = Climbazole (28.5%) in Pelemol GTIS (42.8%), [S]/[L] 0.7, amide (28.5%), 24 hours
# [8] = Niacinamide (9.1%) in PPG425 (54.5%), [S]/[L] 0.2, amide (36.4%), observation at 12 hours
# [9] = Niacinamide (10%) in Glucam P-20 (55%), [S]/[L] 0.2, amide (35%), 24 hours
# [10] = Cholesterol (18%) in retinol proprionate (50%), [S]/[L] 0.4, amide or comparator (32%), observation at 12 hours
# [11] = retinyl palmitate (28.5%) in OMC (42.8%), [S]/[L] 0.7, amide or comparator (28.5%), 24 hours
# [12] = liquid cosmetic agents, Table 2
compound,measurement,setting,value
NC(=O)NCCO [2-hydroxyethyl urea],Log Po/w,"[1]; solid cosmetic agents, Table 1",−0.86
same,"Appearance after cooling - observation at 24 hours, except as noted","[2]; 2-HEU (24.9%) in OMC (75.1%), [S]/[L] 0.3, no tricyclodecaneamide, 24 hours",crystal + liquid
CC(C)(C)C(=O)C(Oc1ccc(Cl)cc1)n1ccnc1 (stereo not drawn) [Climbazole],Log Po/w,"[1]; solid cosmetic agents, Table 1",3.49
same,"Appearance after cooling - observation at 24 hours, except as noted","[2]; Climbazole (10%) in Pelemol GTIS (90%), [S]/[L] 0.1, no tricyclodecaneamide, 24 hours",crystal + liquid
same,"Appearance after cooling - observation at 24 hours, except as noted","[2]; Climbazole (30%) in OMC (70%), [S]/[L] 0.4, no tricyclodecaneamide, 24 hours",crystal + liquid
same,"Appearance after cooling - observation at 24 hours, except as noted","[2]; Climbazole (40%) in PPG425 (60%), [S]/[L] 0.7, no tricyclodecaneamide, 24 hours",crystals + liquid
"O=C(N1CCCC2CCCCC21)C12CC3CC(CC(C3)C1)C2 (stereo not drawn) [Compound C10, Methanone, (decahydroquinolinyl)tricyclo[3.3.1.1^3,7]dec-1-yl-]","Appearance after cooling - observation at 24 hours, except as noted",[2]; [3],clear liquid
same,"Appearance after cooling - observation at 24 hours, except as noted",[2]; [4],translucent gel
same,"Appearance after cooling - observation at 24 hours, except as noted",[2]; [5],Clear liquid
same,"Appearance after cooling - observation at 24 hours, except as noted",[2]; [6],clear liquid
same,"Appearance after cooling - observation at 24 hours, except as noted",[2]; [7],clear liquid
same,"Appearance after cooling - observation at 24 hours, except as noted",[2]; [8],clear liquid
same,"Appearance after cooling - observation at 24 hours, except as noted",[2]; [9],clear liquid
"CC1CCCN(C(=O)C23CC4CC(CC(C4)C2)C3)C1 (stereo not drawn) [Compound C14, Methanone, (3-methyl-1-piperidinyl)tricyclo[3.3.1.1^3,7]dec-1-yl-]","Appearance after cooling - observation at 24 hours, except as noted",[2]; [3],clear liquid
same,"Appearance after cooling - observation at 24 hours, except as noted","[2]; 2-HEU (42%) in OMC (33%), [S]/[L] 1.3, amide (25%), 24 hours",crystal + liquid
same,"Appearance after cooling - observation at 24 hours, except as noted",[2]; [4],translucent gel
same,"Appearance after cooling - observation at 24 hours, except as noted","[2]; 12HSA (16.6%) in Pelemol TISC (50%), [S]/[L] 0.3, amide (33%), 24 hours",translucent gel
same,"Appearance after cooling - observation at 24 hours, except as noted","[2]; Avobenzone (28.5%) in Propylene glycol (42.8%), [S]/[L] 0.7, amide (28.5%), 24 hours",Crystal + liquid
same,"Appearance after cooling - observation at 24 hours, except as noted","[2]; Cholesterol (10%) in conjugated linoleic acid (45%), [S]/[L] 0.2, amide (45%), 24 hours",clear liquid
same,"Appearance after cooling - observation at 24 hours, except as noted",[2]; [5],Clear liquid
same,"Appearance after cooling - observation at 24 hours, except as noted",[2]; [10],clear liquid
same,"Appearance after cooling - observation at 24 hours, except as noted","[2]; Cholesterol (35%) in OMC (32%), [S]/[L] 1.1, amide (33%), 24 hours",crystal + liquid
same,"Appearance after cooling - observation at 24 hours, except as noted","[2]; Cholesterol (40%) in conjugated linoleic acid (30%), [S]/[L] 1.3, amide (30%), 24 hours",crystals + liquid
same,"Appearance after cooling - observation at 24 hours, except as noted","[2]; Cholesterol (45%) in retinol proprionate (35%), [S]/[L] 1.3, amide (20%), observation at 12 hours",opaque solid
same,"Appearance after cooling - observation at 24 hours, except as noted",[2]; [6],clear liquid
same,"Appearance after cooling - observation at 24 hours, except as noted","[2]; Climbazole (28.5%) in PPG425 (42.8%), [S]/[L] 0.7, amide (28.5%), 24 hours",clear liquid
same,"Appearance after cooling - observation at 24 hours, except as noted",[2]; [7],clear liquid
same,"Appearance after cooling - observation at 24 hours, except as noted","[2]; Climbazole (45%) in PPG425 (35%), [S]/[L] 1.3, amide (20%), 24 hours",crystals + liquid
same,"Appearance after cooling - observation at 24 hours, except as noted","[2]; Climbazole (50%) in Pelemol GTIS (25%), [S]/[L] 2, amide (25%), 24 hours",crystal + liquid
same,"Appearance after cooling - observation at 24 hours, except as noted","[2]; Climbazole (55%) in OMC (22.5%), [S]/[L] 2.4, amide (22.5%), 24 hours",crystal + liquid
same,"Appearance after cooling - observation at 24 hours, except as noted","[2]; Methyl Paraben (40%) in PPG-425 (40%), [S]/[L] 1, amide (20%), 24 hours",clear liquid
same,"Appearance after cooling - observation at 24 hours, except as noted","[2]; Methyl Paraben (60%) in PPG-425 (25%), [S]/[L] 2, amide (15%), 24 hours",crystal + liquid
same,"Appearance after cooling - observation at 24 hours, except as noted",[2]; [8],clear liquid
same,"Appearance after cooling - observation at 24 hours, except as noted",[2]; [9],clear liquid
same,"Appearance after cooling - observation at 24 hours, except as noted","[2]; Niacinamide (35%) in Glucam P-20 (25%), [S]/[L] 1.4, amide (40%), 24 hours",crystal + liquid
same,"Appearance after cooling - observation at 24 hours, except as noted","[2]; Niacinamide (35%) in PPG425 (32.5%), [S]/[L] 1.1, amide (32.5%), observation at 12 hours",opaque solid
same,"Appearance after cooling - observation at 24 hours, except as noted","[2]; Salicylic acid (15%) in conjugated linoleic acid (35%), [S]/[L] .4, amide (50%), 24 hours",clear liquid
same,"Appearance after cooling - observation at 24 hours, except as noted","[2]; Salicylic acid (18%) in OMC (50%), [S]/[L] 0.4, amide (32%), 24 hours",clear liquid
same,"Appearance after cooling - observation at 24 hours, except as noted","[2]; Salicylic acid (42%) in conjugated linoleic acid (33%), [S]/[L] 1.3, amide (25%), 24 hours",opaque solid
same,"Appearance after cooling - observation at 24 hours, except as noted","[2]; Salicylic acid (60%) in OMC (25%), [S]/[L] 2.4, amide (15%), 24 hours",crystal + liquid
same,"Appearance after cooling - observation at 24 hours, except as noted",[2]; [11],clear liquid
"CC(C)(C)CC(C)(C)NC(=O)C12CC3CC(CC(C3)C1)C2 [Compound C21, Methanone, (1,1-dimethyl-3,3-dimethylbutylaminyl) tricyclo[3.3.1.1^3,7]dec-1-yl-]","Appearance after cooling - observation at 24 hours, except as noted",[2]; [3],Translucent gel
same,"Appearance after cooling - observation at 24 hours, except as noted","[2]; Avobenzone (28%) in OMC (40%), [S]/[L] 0.7, amide (32%), 24 hours",Clear liquid
same,"Appearance after cooling - observation at 24 hours, except as noted","[2]; Avobenzone (45%) in OMC (27.5%), [S]/[L] 1.6, amide (27.5%), 24 hours",crystals + liquid
same,"Appearance after cooling - observation at 24 hours, except as noted",[2]; [5],Translucent gel
same,"Appearance after cooling - observation at 24 hours, except as noted",[2]; [6],clear liquid
same,"Appearance after cooling - observation at 24 hours, except as noted",[2]; [7],clear liquid
same,"Appearance after cooling - observation at 24 hours, except as noted",[2]; [9],clear liquid
O=C(O)CO [Glycolic acid],Log Po/w,"[1]; solid cosmetic agents, Table 1",−1.2
CCCCCCCCCCCCCC(=O)OC(C)C [Isopropyl myristate],Log Po/w,[1]; [12],7.25
NC(=O)c1cccnc1 [Niacinamide],Log Po/w,"[1]; solid cosmetic agents, Table 1",−0.37
same,"Appearance after cooling - observation at 24 hours, except as noted","[2]; Niacinamide (10%) in Glucam P-20 (90%), [S]/[L] 0.1, no tricyclodecaneamide, 24 hours",crystal + liquid
same,"Appearance after cooling - observation at 24 hours, except as noted","[2]; Niacinamide (14.5%) in PPG425 (85.5%), [S]/[L] 0.2, no tricyclodecaneamide, observation at 12 hours",opaque solid
CCCCC(CC)COC(=O)C=Cc1ccc(OC)cc1 (stereo not drawn) [Octylmethoxycinnamate],Log Po/w,[1]; [12],5.92
CC(O)CO (stereo not drawn) [Propylene glycol],Log P,[1]; liquid agent named in Table 3,P~−1.3)
Oc1cc(Cl)ccc1Oc1ccc(Cl)cc1Cl [Triclosan],Log Po/w,"[1]; solid cosmetic agents, Table 1",5.34
CC(C)CCCCCCCCCCCCCCC(=O)OC(C)C [isopropyl isostearate],Log Po/w,[1]; [12],9.14
"CCCCCCCCCCCCCCCCCC(N)=O [octadecanamide, reference compound]","Appearance after cooling - observation at 24 hours, except as noted",[2]; [4],opaque solid
same,"Appearance after cooling - observation at 24 hours, except as noted",[2]; [5],crystal + liquid
same,"Appearance after cooling - observation at 24 hours, except as noted",[2]; [10],opaque solid
same,"Appearance after cooling - observation at 24 hours, except as noted","[2]; Climbazole (16.6%) in OMC (50%), [S]/[L] 0.7, straight chain comparator (33.3%), 24 hours",crystal + liquid
same,"Appearance after cooling - observation at 24 hours, except as noted",[2]; [11],crystal + liquid
CCCCC(CC)COC(=O)C(C#N)=C(c1ccccc1)c1ccccc1 (stereo not drawn) [octocrylene],Log Po/w,[1]; [12],6.89
"NC(=O)c1ccccc1C(N)=O [phthalamide, reference compound]","Appearance after cooling - observation at 24 hours, except as noted",[2]; [4],opaque solid
"CCCCCCCCCCCCCC(=O)NC1CCCC(C)C1 (stereo not drawn) [tetradecanoic acid (3 methyl-cyclohexyl)-amide, reference compound]","Appearance after cooling - observation at 24 hours, except as noted","[2]; Avobenzone (45%) in OMC (27.5%), [S]/[L] 2, straight chain comparator (27.5%), 24 hours",crystals + liquid
Conjugated linoleic acid,Log Po/w,[1]; [12],>6
